Data reported in patent US20180369327A1, “METHOD FOR TREATING OR PREVENTING OSTEOARTHRITIS” (Dong-A University Research Foundation for Industry-Academy …, priority 2017, published 2018).

Legend:
[1] = test system: rat articular chondrocytes; assay: Cell viability assay (automated trypan blue exclusion); type: cell-based; conditions: n=4
Procedure: Rat articular chondrocytes for primary culture were isolated from knee joint cartilage slices by enzymatic digestion for 1 h with 0.2% type II collagenase (381 units/mg) in DMEM. After the isolated cells were collected by brief centrifugation, they were resuspended in DMEM supplemented with 10% (v/v) FBS, […] streptomycin and 50 units/ml penicillin (Gibco). The cells were plated on culture dishes at a density of 5×10^4 cells/cm^2. The medium was replaced every 2 days, and they reached confluence after approximately 5 days in culture. In each experiment, the cells from three animals were pooled and analyzed three times.
FFA were dissolved in absolute ethanol at a concentration of 500 mM and diluted to final concentrations of FFAs with the appropriate concentration of 1% (w/v) FFA-free BSA. Controls were incubated with equal concentrations of FFA-free BSA containing ethanol. To examine the effect of several chemicals, cells were pretreated with 150 μg/mL DRB or 30 μM cilostazol for 24 h or 25 ng/ml TNF-α for 3 h before FFA treatment.
siRNA transfection or combination treatment with FFAs. Transfection of siRNA was performed with the use of siPORT Amine and Opti-MEM media. Cells grown to a confluence of 40% to 50% in six-well plates were transfected with 100 nM final siRNA concentration per well. Transfection mixture was added to each well, and incubation occurred for 4 h. Then 2 ml of growth medium was added, and cells were incubated for another 20 h. After siRNA transfection medium was removed, each well was washed in PBS solution. Cells were treated with FFAs for 24 hours.
Recombinant adenoviral STAMP2 was prepared as described previously34. Cells (1×10^7) were infected with recombinant adenoviral STAMP2 at multiplicities of infection (MOI) of 500, 1000 and 1500 to the medium.
An automated trypan blue exclusion assay was undertaken. Total cells and trypan bluestained (i.e., nonviable) cells were counted, and the percentage of nonviable cells was calculated using the Vi-Cell cell counter (Beckman Coulter, Miami, Fla., USA).

[2] = test system: lipid droplets (LD) in rat articular chondrocytes; assay: Lipid droplet staining (Nile red, BODIPY), confocal microscopy and quantification; type: cell-based
Procedure: Rat articular chondrocytes for primary culture were isolated from knee joint cartilage slices by enzymatic digestion for 1 h with 0.2% type II collagenase (381 units/mg) in DMEM. After the isolated cells were collected by brief centrifugation, they were resuspended in DMEM supplemented with 10% (v/v) FBS, […] streptomycin and 50 units/ml penicillin (Gibco). The cells were plated on culture dishes at a density of 5×10^4 cells/cm^2. The medium was replaced every 2 days, and they reached confluence after approximately 5 days in culture. In each experiment, the cells from three animals were pooled and analyzed three times. FFA were dissolved in absolute ethanol at a concentration of 500 mM and diluted to final concentrations of FFAs with the appropriate concentration of 1% (w/v) FFA-free BSA. Controls were incubated with equal concentrations of FFA-free BSA containing ethanol. […] Cells cultured on a coverslip were incubated with diluted Nile red or BODIPY 493/503. Some sections were double-labelled with TUNEL and BODIPY 493/503 and counterstained with Hoechst 33342. Fluorescence images were observed and analyzed using a Zeiss LSM 510 laser-scanning confocal microscope (Goettingen, Germany). Twenty cells from each experiment were observed and auantification of fluorescence intensity of the confocal images were obtained with the use of ImageJ software. Fluorescence intensity was expressed as AU.

[3] = test system: PKCK2; assay: Immunohistochemistry of cartilage, PKCK2-positive cells, HFD-induced OA mouse model; type: in vivo; conditions: mice fed HFD, cilostazol 30 mg/kg/day orally 10 weeks; n=10
Procedure: (§1) HFD-induced OA mouse model. Sixty mice were fed a normal chow diet for one week and then mice were fed an HFD or a SD for 25 weeks. Ten mice from each diet were used histologically examine the effect of high fat diet. Forty mice were used to examine the effect of cilostazol. Mice fed a SD or HFD for 15 weeks were orally administered cilostazol at concentrations of 30 mg/kg/day for additional 10 weeks. SD+vehicle mice (n=10) were fed a SD and received DMSO. SD+cilostazol mice (n=10) were fed a SD and received cilostazol. HFD+vehicle mice (n=10) were fed a HFD and received DMSO. HFD+cilostazol mice (n=10) were fed a HFD and received cilostazol. Immunohistochemical observation and analysis. Tissue sections were incubated in 1:70-diluted goat serum solution for 30 minutes at room temperature, and then for 2 hours with 1:100-diluted primary antibody at room temperature. Next, sections were incubated with secondary antibody for 1 hour at 37° C. and developed using ABC complex. […] Histological images were observed and analyzed using a Aperio ScanScope® CS system. Total numbers of positive for […]27 and STAMP2 in four fields per animal were counted by an observer blinded to the experiment and the percentage of positive cells were calculated.

[4] = test system: STAMP2; assay: Immunohistochemistry of cartilage, STAMP2-positive cells, HFD-induced OA mouse model; type: in vivo; conditions: mice fed HFD, cilostazol 30 mg/kg/day orally 10 weeks; n=10
Procedure: as §1

For `O=C1CCc2cc(OCCCCc3nnnn3C3CCCCC3)ccc2N1` [cilostazol], the “influence on lipotoxicity of oleate/palmitate combination (viability)” value ([1]; 0.4 mM oleate with 0.6 or 1.6 mM palmitate) was “reciprocal influences on lipotoxicity”, the “effect on oleate-induced cell death (viability)” value ([1]; cilostazol pre-treatment, 1.5 mM oleate) was “prevented 1.5 mM oleate-induced cell death” and the “LD size and LD accumulation” value ([2]; 30 μM cilostazol, 1.5 mM oleate) was “increases LD size and LD accumulation”. For the same compound, the LD accumulation ([2]; cilostazol in cells treated with 0.4 mM oleate and 1.6 mM palmitate) was “augmented the LD accumulation”, the “total LD volume” value ([2]; cilostazol versus 1.5 mM oleate alone, n=4) was “significantly increased” and the “oleate-induced LD fragmentation” value ([2]; cilostazol, 1.5 mM oleate, n=4) was “prevented oleate-induced LD fragmentation”. The “population of PKCK2-positive cells” value [3] was “significantly increased” and the “population of STAMP2-positive cells” value [4] was “significantly increased”.
